Source: patent publication US20240423992A1, “BIOMARKERS FOR TREATING LIVER DISORDERS WITH THR-B AGONISTS AND RELATED USES” (Madrigal Pharmaceuticals, Inc., priority 2023, published 2024)

Columns and labels:
[1] = test system: adults with nonalcoholic fatty liver disease (NAFLD)/presumed nonalcoholic steatohepatitis (NASH); assay: 52-week Phase 3 trial (Example 1): sex hormone levels; assay type: in vivo, human; conditions: Resmetirom 100 mg OL, Week 52
Protocol: A 52-week randomized, double-blind, placebo-controlled Phase 3 trial was conducted to evaluate the safety and effect of resmetirom, an oral, once-daily, liver-targeted thyroid hormone receptor-β selective agonist, on multiple biomarkers in adults with nonalcoholic fatty liver disease (NAFLD)/presumed nonalcoholic steatohepatitis (NASH). Patients were randomized to three double-blind arms (100 mg resmetirom, 80 mg resmetirom, or placebo) or one open-label arm (100 mg resmetirom). Common concomitant medications across the 4 arms were antidiabetes drugs (such as glucagon-like peptide-1 receptor agonists (GLP-1 RAs), metformin, pioglitazone, and sodium/glucose cotransporter-2 inhibitors (SGLT2i)) and drugs to manage dyslipidemia (statins).
Sex hormone levels after 52 weeks of resmetirom treatment are shown in Table A. Thyroid hormone levels after 52 weeks of resmetirom treatment are reported in Table B.

[2] = test system: patients with Nonalcoholic Steatohepatitis; assay: Phase 3 trial in Nonalcoholic Steatohepatitis (Example 2): sex hormone levels; assay type: in vivo, human; conditions: for Estradiol (female) LS Mean Difference / Estradiol (male) LS Mean Difference / FSH (female) LS Mean Difference / FSH (male) LS Mean Difference / Free testosterone (female) LS Mean Difference / Free testosterone (male) LS Mean Difference / LH (female) LS Mean Difference / LH (male) LS Mean Difference / SHBG (female) LS Mean Difference in % CFB / SHBG (female) LS Mean Difference in CFB / SHBG (male) LS Mean Difference in % CFB / SHBG (male) LS Mean Difference in CFB / SHBG LS Mean Difference in % CFB / SHBG LS Mean Difference in CFB / Testosterone (female) LS Mean Difference / Testosterone (male) LS Mean Difference / Estradiol (female) LS Mean CFB (SE) / Estradiol (male) LS Mean CFB (SE) / FSH (female) LS Mean CFB (SE) / FSH (male) LS Mean CFB (SE) / Free testosterone (female) LS Mean CFB (SE) / Free testosterone (male) LS Mean CFB (SE) / LH (female) LS Mean CFB (SE) / LH (male) LS Mean CFB (SE) / SHBG (female) LS Mean % CFB (SE) / SHBG (female) LS Mean CFB (SE) / SHBG (male) LS Mean % CFB (SE) / SHBG (male) LS Mean CFB (SE) / SHBG LS Mean % CFB (SE) / SHBG LS Mean CFB (SE) / Testosterone (female) LS Mean CFB (SE) / Testosterone (male) LS Mean CFB (SE): Week 52
Protocol: A randomized, double-blind, placebo-controlled Phase 3 trial was conducted. Patients were randomly assigned to receive resmetirom 80 mg, resmetirom 100 mg, or placebo administered orally once daily. Screening biopsy results were used as baseline for histologic variables and a second biopsy was performed at Week 52.

## CC(C)c1cc(Oc2c(Cl)cc(-n3nc(C#N)c(=O)[nH]c3=O)cc2Cl)n[nH]c1=O [Resmetirom, 2-[3,5-dichloro-4-[(6-oxo-5-propan-2-yl-1H-pyridazin-3-yl)oxy]phenyl]-3,5-dioxo-1,2,4-triazine-6-carbonitrile]
[1]
  LH (female) LSM CFB: −0.0 IU/L
  LH (male) LSM CFB: 0.3 IU/L
  SHBG (female) LSM % CFB: 199.3%
  SHBG (female) LSM CFB: 68.6 nmol/L
  SHBG (male) LSM % CFB: 156.0%
  SHBG (male) LSM CFB: 44.7 nmol/L
  SHBG LSM % CFB: 182.6%
  SHBG LSM CFB: 60.3 nmol/L
  Testosterone (female) LSM CFB: 0.1 µg/L
  Testosterone (male) LSM CFB: 2.8 µg/L
[2]; Resmetirom 80 mg from PBO
  Estradiol (female) LS Mean Difference: 15.9 ng/L
  Estradiol (male) LS Mean Difference: 9.0 ng/L
  FSH (female) LS Mean Difference: 0.79 mIU/mL
  FSH (male) LS Mean Difference: 1.1 mIU/mL
  Free testosterone (female) LS Mean Difference: 0 nmol/L
  Free testosterone (male) LS Mean Difference: 0.02 nmol/L
  LH (female) LS Mean Difference: −0.33 mIU/mL
  LH (male) LS Mean Difference: 1.8 mIU/mL
  SHBG (female) LS Mean Difference in % CFB: 177.4%
  SHBG (female) LS Mean Difference in CFB: 73.3 nmol/L
  SHBG (male) LS Mean Difference in % CFB: 107.3%
  SHBG (male) LS Mean Difference in CFB: 40.4 nmol/L
  SHBG LS Mean Difference in % CFB: 148.5%
  SHBG LS Mean Difference in CFB: 58.9 nmol/L
  Testosterone (female) LS Mean Difference: 0.15 µg/L
  Testosterone (male) LS Mean Difference: 2.2 µg/L
[2]; Resmetirom 80 mg
  Estradiol (female) LS Mean CFB (SE): 17.7 (8.0) ng/L
  Estradiol (male) LS Mean CFB (SE): 8.9 (1.3) ng/L
  FSH (female) LS Mean CFB (SE): −0.54 (0.89) mIU/mL
  FSH (male) LS Mean CFB (SE): 1.1 (0.24) mIU/mL
  Free testosterone (female) LS Mean CFB (SE): 0 (0.001) nmol/L
  Free testosterone (male) LS Mean CFB (SE): 0.04 (0.009) nmol/L
  LH (female) LS Mean CFB (SE): −0.93 (0.69) mIU/mL
  LH (male) LS Mean CFB (SE): 1.7 (0.30) mIU/mL
  SHBG (female) LS Mean % CFB (SE): 193.0 (15.3) %
  SHBG (female) LS Mean CFB (SE): 74.1 (6.0) nmol/L
  SHBG (male) LS Mean % CFB (SE): 108.0 (11.2) %
  SHBG (male) LS Mean CFB (SE): 41.9 (4.2) nmol/L
  SHBG LS Mean % CFB (SE): 157.5 (10.2) %
  SHBG LS Mean CFB (SE): 60.2 (4.0) nmol/L
  Testosterone (female) LS Mean CFB (SE): 0.15 (0.019) ug/L
  Testosterone (male) LS Mean CFB (SE): 2.6 (0.26) ug/L
[2]; Resmetirom 100 mg from PBO
  Estradiol (female) LS Mean Difference: 28.8 ng/L
  Estradiol (male) LS Mean Difference: 11.2 ng/L
  FSH (female) LS Mean Difference: 2.0 mIU/mL
  FSH (male) LS Mean Difference: 1.7 mIU/mL
  Free testosterone (female) LS Mean Difference: 0 nmol/L
  Free testosterone (male) LS Mean Difference: 0.01 nmol/L
  LH (female) LS Mean Difference: 1.4 mIU/mL
  LH (male) LS Mean Difference: 2.0 mIU/mL
  SHBG (female) LS Mean Difference in % CFB: 236.2%
  SHBG (female) LS Mean Difference in CFB: 93.2 nmol/L
  SHBG (male) LS Mean Difference in % CFB: 173.3%
  SHBG (male) LS Mean Difference in CFB: 59.3 nmol/L
  SHBG LS Mean Difference in % CFB: 208.4%
  SHBG LS Mean Difference in CFB: 79.4 nmol/L
  Testosterone (female) LS Mean Difference: 0.19 µg/L
  Testosterone (male) LS Mean Difference: 3.0 µg/L
[2]; Resmetirom 100 mg
  Estradiol (female) LS Mean CFB (SE): 30.6 (8.3) ng/L
  Estradiol (male) LS Mean CFB (SE): 11.0 (1.3) ng/L
  FSH (female) LS Mean CFB (SE): 0.63 (0.92) mIU/mL
  FSH (male) LS Mean CFB (SE): 1.7 (0.24) mIU/mL
  Free testosterone (female) LS Mean CFB (SE): 0 (0.001) nmol/L
  Free testosterone (male) LS Mean CFB (SE): 0.03 (0.009) nmol/L
  LH (female) LS Mean CFB (SE): 0.80 (0.72) mIU/mL
  LH (male) LS Mean CFB (SE): 1.9 (0.30) mIU/mL
  SHBG (female) LS Mean % CFB (SE): 251.8 (16.0) %
  SHBG (female) LS Mean CFB (SE): 94.0 (6.3) nmol/L
  SHBG (male) LS Mean % CFB (SE): 174.0 (10.9) %
  SHBG (male) LS Mean CFB (SE): 60.8 (4.1) nmol/L
  SHBG LS Mean % CFB (SE): 217.4 (10.3) %
  SHBG LS Mean CFB (SE): 80.7 (4.1) nmol/L
  Testosterone (female) LS Mean CFB (SE): 0.19 (0.020) ug/L
  Testosterone (male) LS Mean CFB (SE): 3.5 (0.25) ug/L
[2]; in vivo
  Change in sex hormones from baseline: unchanged, except for SHBG increases
